These results are taken from patent US9340577B2, “HLA binding motifs and peptides and their uses” (priority 1992, dated 2016).

Among the targets are HLA-A*0201 (HLA-A2.1) (Homo sapiens, UniProt P04439, D140Y/D185E/D98H/E176V/E277Q/G131W/G231S/I119V/I121R/I166T/I218V/L300P/L318F/N151K/N90K/P208A/P217A/Q86G/Q94H/R138H/R169H/T345S); A*0202 (Homo sapiens, UniProt P04439, D140Y/D185E/D98H/E176V/E277Q/G131W/G231S/I119L/I121R/I166T/I218V/L180W/L300P/L318F/N151K/N90K/P208A/P217A/Q67R/Q86G/Q94H/R138H/R169H/T345S); A*0206 (Homo sapiens, UniProt P04439, D140Y/D185E/D98H/E176V/E277Q/F33Y/G131W/G231S/I119V/I121R/I166T/I218V/L300P/L318F/N151K/N90K/P208A/P217A/Q86G/Q94H/R138H/R169H/T345S); A*6802 (Homo sapiens, UniProt P04439, A269V/D140Y/D185E/E176V/E277Q/E87N/F33Y/G231S/I121R/I166T/I218V/L180W/L300P/L318F/N151K/P208A/P217A/Q86R/R138H/R169H/S129P/T345S/V36M); A*0203 (Homo sapiens, UniProt P04439, A173T/D140Y/D185E/D98H/E277Q/G131W/G231S/I119V/I121R/I166T/I218V/L180W/L300P/L318F/N151K/N90K/P208A/P217A/Q86G/Q94H/R138H/R169H/T345S).

Common to all, as to assay: biochemical
Assay type in all cases: binding

No end group written: not given here. A value given as a limit tells only on which side of the number the result lay.

As for GLQQATPGPA [Peptide 9013.0143], the IC50 on HLA-A*0201 (HLA-A2.1) is 4870 nM; against A*0202, 220 nM; against A*0206, over 20000 nM; against A*6802 it was over 20000 nM; against A*0203 it was 3.9 nM.

For GLSAGATVGV [Peptide 9013.0250], the IC50 at HLA-A*0201 (HLA-A2.1) amounted to 97 nM; at A*0202 it was 2.9 nM; against A*0206, 1100 nM; at A*6802, 1150 nM; at A*0203, 2.8 nM.

With GLTVGIMIGVL [Peptide 9013.0343], the IC50 at HLA-A*0201 (HLA-A2.1) stood at 5010 nM; on A*0202 it was 914 nM; against A*0206, 11500 nM; against A*6802 it was 2640 nM; at A*0203, 290 nM.

GMIDDVTAI [Peptide 1578.44]: the IC50 at HLA-A*0201 (HLA-A2.1) is 23 nM; against A*0202 it was 5.3 nM; against A*0206 it was 37 nM; against A*6802, over 20000 nM; against A*0203 it was 7.3 nM.

Consider GMIDDVTPI [Peptide 1578.24], for which the IC50 was 25 nM against HLA-A*0201 (HLA-A2.1); 0.2 nM at A*0202; 24 nM on A*0206; over 20000 nM at A*6802; 0.63 nM against A*0203.

With GTQQATPGPV [Peptide 9013.0142], the IC50 on HLA-A*0201 (HLA-A2.1) was over 20000 nM; against A*0202 it was over 20000 nM; against A*0206, over 20000 nM; against A*6802 it was over 20000 nM; against A*0203, 36 nM.

Consider HLQVLFIAKI [Peptide 9013.0244], for which the IC50 at HLA-A*0201 (HLA-A2.1) is 5930 nM; against A*0202 it was 789 nM; at A*0206 it was 121 nM; against A*6802, over 20000 nM; on A*0203, 29 nM.

Consider IIQNDTGFYV [Peptide 9013.0146], for which the IC50 against HLA-A*0201 (HLA-A2.1) was found to be 155 nM; against A*0202, 25 nM; against A*0206 it was 201 nM; against A*6802, 2600 nM; at A*0203 it was 548 nM.

Take IIYPNASLLV [Peptide 9013.0144]: the IC50 was determined as 466 nM against HLA-A*0201 (HLA-A2.1); 9.9 nM at A*0202; 70 nM against A*0206; 830 nM against A*6802; 4.7 nM on A*0203.

As to IIYPNASLV [Peptide 9013.0029], the IC50 against HLA-A*0201 (HLA-A2.1) worked out at 230 nM; at A*0202, 24 nM; at A*0206 it was 152 nM; on A*6802, 409 nM; against A*0203, 4 nM.

As to ILYPNASLLI [Peptide 9013.0145], the IC50 at HLA-A*0201 (HLA-A2.1) was found to be 88 nM; against A*0202, 1.3 nM; against A*0206, 252 nM; on A*6802, 3120 nM; against A*0203 it was 2.8 nM.

As to IQGAVISFV [Peptide 1578.13], the IC50 was found to be 45 nM at HLA-A*0201 (HLA-A2.1); 12 nM at A*0202; 35 nM at A*0206; 4880 nM against A*6802; 13 nM against A*0203.

Turning to IQNDTGFYTV [Peptide 9013.0149], the IC50 on HLA-A*0201 (HLA-A2.1) amounted to 600 nM; on A*0202, 20 nM; against A*0206, 63 nM; against A*6802, 8840 nM; on A*0203, 31 nM.

Take IQNDTGFYV [Peptide 9013.0035]: the half-maximal inhibitory concentration (IC50) at HLA-A*0201 (HLA-A2.1) is 148 nM; against A*0202, 16 nM; on A*0206 it was 32 nM; on A*6802, 4500 nM; on A*0203, 37 nM.

Turning to IVNTTYLWWV [Peptide 9013.0196], the IC50 came out at 5940 nM on HLA-A*0201 (HLA-A2.1); 1440 nM on A*0202; 91 nM at A*0206; 71 nM on A*6802; 389 nM at A*0203.

For the sequence KLMSQLLNI [Peptide 1578.29], the IC50 on HLA-A*0201 (HLA-A2.1) is 35 nM; on A*0202 it was 1.6 nM; at A*0206 it was 56 nM; at A*6802, over 20000 nM; on A*0203, 12 nM.

As for KLTFLCVTL [Peptide 1516.14], the IC50 against HLA-A*0201 (HLA-A2.1) is 19 nM; against A*0202 it was 3 nM; against A*0206 it was 123 nM; on A*6802 it was over 20000 nM; against A*0203, 41 nM.

KTITVSAEV [Peptide 9013.0083]: the IC50 at HLA-A*0201 (HLA-A2.1) was determined as 971 nM; at A*0202, 42 nM; at A*0206 it was 79 nM; against A*6802, 15 nM; against A*0203, 2.6 nM.

LIQPFILYA [Peptide 1578.07]: the IC50 is 124 nM on HLA-A*0201 (HLA-A2.1); 70 nM on A*0202; 71 nM on A*0206; 8630 nM at A*6802; 46 nM against A*0203.

Regarding LLFWNPPTTA [Peptide 9013.0123], the IC50 at HLA-A*0201 (HLA-A2.1) turned out to be 25 nM; against A*0202, 1.3 nM; against A*0206 it was 1170 nM; on A*6802, 2140 nM; on A*0203, 1.6 nM.

Regarding LLIESTPFNVA [Peptide 9013.0268], the IC50 at HLA-A*0201 (HLA-A2.1) was 121 nM; on A*0202 it was 3.3 nM; on A*0206, 107 nM; on A*6802, over 20000 nM; on A*0203, 3.5 nM.

Take LLLSNDNRTL [Peptide 9013.0205]: the IC50 is 8190 nM against HLA-A*0201 (HLA-A2.1); 303 nM on A*0202; over 20000 nM at A*0206; over 20000 nM at A*6802; 4180 nM against A*0203.

For LLLSNGNRTL [Peptide 9013.0227], the IC50 was 1550 nM at HLA-A*0201 (HLA-A2.1); 158 nM against A*0202; 3990 nM against A*0206; over 20000 nM at A*6802; 412 nM on A*0203.

With LLLTASLLV [Peptide 9013.0002], the IC50 against HLA-A*0201 (HLA-A2.1) was 28 nM; on A*0202, 1330 nM; at A*0206, 79 nM; on A*6802, over 20000 nM; at A*0203, 293 nM.

Regarding LLTFWNPPTV [Peptide 9013.0120], the IC50 against HLA-A*0201 (HLA-A2.1) came to 170 nM; against A*0202 it was 10 nM; at A*0206 it was 1000 nM; against A*6802 it was 607 nM; against A*0203 it was 3.2 nM.

Regarding LQGSVICFV [Peptide 1578.06], the half-inhibitory concentration (IC50) is 23 nM at HLA-A*0201 (HLA-A2.1); 33 nM on A*0202; 52 nM against A*0206; 3560 nM on A*6802; 21 nM against A*0203.

As for LQLSNDNRTLV [Peptide 9013.0307], the half-maximal inhibitory concentration (IC50) is 12800 nM against HLA-A*0201 (HLA-A2.1); 1390 nM against A*0202; 99 nM against A*0206; over 20000 nM at A*6802; 5200 nM against A*0203.

For the sequence LTFWNPPTTV [Peptide 9013.0122], the IC50 amounted to 210 nM against HLA-A*0201 (HLA-A2.1); 38 nM on A*0202; 339 nM on A*0206; 23 nM against A*6802; 1.9 nM against A*0203.

Regarding MAFEYALLA [Peptide 1578.09], the IC50 against HLA-A*0201 (HLA-A2.1) stood at 226 nM; on A*0202, 52 nM; against A*0206 it was 100 nM; against A*6802, 29 nM; against A*0203, 74 nM.

In the case of MTRNPPVPV [Peptide 1539.02], the IC50 on HLA-A*0201 (HLA-A2.1) was 9170 nM; at A*0202 it was 1140 nM; against A*0206 it was over 20000 nM; on A*6802, 117 nM; against A*0203, 35 nM.

For MTSNPAIPV [Peptide 1539.03], the half-maximal inhibitory concentration (IC50) on HLA-A*0201 (HLA-A2.1) was 1470 nM; at A*0202 it was 951 nM; against A*0206, 911 nM; on A*6802, 2 nM; at A*0203 it was 68 nM.

For the sequence NLAEGKEVL [Peptide 9013.0016], the IC50 is 3840 nM at HLA-A*0201 (HLA-A2.1); 14 nM against A*0202; over 20000 nM against A*0206; over 20000 nM against A*6802; 293 nM against A*0203.

As to NLNLSCHAV [Peptide 9013.0054], the IC50 amounted to 633 nM at HLA-A*0201 (HLA-A2.1); 15 nM on A*0202; 7130 nM against A*0206; 2200 nM against A*6802; 39 nM at A*0203.

With NVAEGKEVV [Peptide 9013.0015], the IC50 was over 20000 nM against HLA-A*0201 (HLA-A2.1); 1310 nM at A*0202; over 20000 nM against A*0206; 354 nM against A*6802; 4750 nM at A*0203.

Consider PLYSWRINGI [Peptide 9013.0236], for which the IC50 was over 20000 nM on HLA-A*0201 (HLA-A2.1); 348 nM against A*0202; over 20000 nM at A*0206; over 20000 nM against A*6802; 14 nM at A*0203.

Regarding PQYSWRINGV [Peptide 9013.0235], the IC50 was over 20000 nM against HLA-A*0201 (HLA-A2.1); 1330 nM at A*0202; over 20000 nM against A*0206; over 20000 nM against A*6802; 25 nM on A*0203.

As for QITPLCVTL [Peptide 1516.13], the IC50 came to 976 nM at HLA-A*0201 (HLA-A2.1); 124 nM against A*0202; 634 nM at A*0206; 2870 nM at A*6802; 4390 nM on A*0203.

As for QLHTQELFI [Peptide 9013.0079], the half-inhibitory concentration (IC50) amounted to 832 nM at HLA-A*0201 (HLA-A2.1); 25 nM against A*0202; 11700 nM on A*0206; 19100 nM against A*6802; 264 nM on A*0203.
